Assays:
Prothrombin = Prothrombin (Homo sapiens, UniProt P00734); assay: Inhibition of thrombin
Serine protease 1 = Serine protease 1 (Homo sapiens, UniProt P07477); assay: Inhibition of trypsin
Coagulation factor X = Coagulation factor X (Homo sapiens, UniProt P00742); assay: Compound was evaluated for the inhibition of Coagulation factor X
Neutrophil elastase = molecular target: T1, Neutrophil elastase (Homo sapiens, UniProt P08246); assay: Compound was evaluated for the inhibition of human leukocyte elastase(HLE).
T1 sequence (P08246 whole entry): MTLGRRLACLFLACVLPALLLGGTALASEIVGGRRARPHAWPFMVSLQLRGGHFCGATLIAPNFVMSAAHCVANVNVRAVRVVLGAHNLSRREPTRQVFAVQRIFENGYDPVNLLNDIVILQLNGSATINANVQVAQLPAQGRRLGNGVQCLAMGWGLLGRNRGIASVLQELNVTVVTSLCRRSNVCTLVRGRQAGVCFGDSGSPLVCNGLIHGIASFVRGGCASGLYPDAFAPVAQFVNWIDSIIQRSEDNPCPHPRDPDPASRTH

Serine protease 1, sequence (P07477 whole entry): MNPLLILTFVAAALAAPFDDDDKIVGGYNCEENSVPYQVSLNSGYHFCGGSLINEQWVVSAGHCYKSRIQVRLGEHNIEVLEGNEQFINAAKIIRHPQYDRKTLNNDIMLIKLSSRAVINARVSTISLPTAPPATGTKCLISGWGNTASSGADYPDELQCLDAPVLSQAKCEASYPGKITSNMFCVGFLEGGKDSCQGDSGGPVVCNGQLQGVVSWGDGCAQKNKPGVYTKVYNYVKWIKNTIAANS
Coagulation factor X, sequence (P00742 41-179 limits assumed): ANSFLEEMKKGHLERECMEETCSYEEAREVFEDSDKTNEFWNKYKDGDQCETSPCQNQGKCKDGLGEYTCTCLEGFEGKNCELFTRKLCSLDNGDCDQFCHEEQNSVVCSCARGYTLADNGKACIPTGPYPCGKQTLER
Coagulation factor X, sequence (P00742 235-488 limits assumed): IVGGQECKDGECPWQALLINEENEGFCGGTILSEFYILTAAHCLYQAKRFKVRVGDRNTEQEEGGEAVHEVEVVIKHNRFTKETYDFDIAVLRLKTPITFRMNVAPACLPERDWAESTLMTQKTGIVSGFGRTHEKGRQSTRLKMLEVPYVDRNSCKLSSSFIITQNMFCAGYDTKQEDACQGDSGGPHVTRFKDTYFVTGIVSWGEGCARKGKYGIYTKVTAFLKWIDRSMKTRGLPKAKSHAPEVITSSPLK

Row | Structure (SMILES) | IC50 (Prothrombin) | IC50 (Serine protease 1) | IC50 (Coagulation factor X) | IC50 (Neutrophil elastase)
1 | C=CC[C@H]1C(=O)O[C@H]2CCC[C@@H]21 | > 50 µM |  |  | 
2 | CC(C)=CC(=O)C[C@@H]1C(=O)O[C@H]2CCC[C@@H]21 | 0.021 µM |  |  | 
3 | N=C(N)c1cccc(C[C@H]2C(=O)O[C@H]3CCC[C@@H]32)c1 | > 100 µM | 3.3 µM |  | 
4 | CC(C)=CC(=O)C[C@@H]1C(=O)O[C@H]2CCCC21 (some centres not stated) | 0.019 µM |  |  | 

The remaining compounds from weak to strong by IC50 (Prothrombin), led by results:

Row | IC50 (Prothrombin) | IC50 (Serine protease 1) | IC50 (Coagulation factor X) | IC50 (Neutrophil elastase) | Structure (SMILES)
5 | 98 µM |  |  |  | C=CC[C@@H]1C(=O)O[C@H]2CCC[C@@H]21
6 | 92 µM |  |  |  | O=C1O[C@H]2CCC[C@@H]2[C@H]1Cc1ccccc1
7 | 73 µM |  |  |  | O=C1O[C@H]2CCC[C@@H]2[C@@H]1Cc1ccccc1
8 | 16.8 µM | 0.22 µM |  |  | N=C(N)c1ccc(C[C@H]2C(=O)O[C@H]3CCC[C@@H]32)cc1
9 | 0.13 µM | 0.04 µM | 10.3 µM |  | N=C(N)CCCC[C@H]1C(=O)O[C@H]2CCC[C@@H]21
10 | 0.046 µM | 0.07 µM | > 20 µM | > 10 µM | CC(C)=CC(=O)C[C@H]1C(=O)O[C@H]2C[C@]3(C)C4=CC[C@@H]5[C@](C)(CC[C@H]6OC(=O)[C@@]56C)[C@H]4CC[C@@]3(C)[C@@H]21
